According to PubChem BioAssay AID1996:
Values after ≈ are worked out from the molar mass of the structure shown.

Details: buffer; pH 7.4; 200.0 µM
Work on `Cn1c(CN2CCN(S(C)(=O)=O)CC2)nc2cc([N+](=O)[O-])ccc21` yielded a solubility kinetic greater than 53 µg/mL.
Work on `O=S(=O)(c1ccc(-c2ccon2)s1)N1CCN(c2ccncc2)CC1` yielded a solubility kinetic of 37.8 µg/mL (≈ 100 µM).
In the case of `COc1cccc(OC)c1C(=O)OCC(=O)N1CCC(Cc2ccccc2)CC1`, the solubility kinetic is reported as 5.2 µg/mL (≈ 13.1 µM).
In the case of `O=Cc1c(Cl)nc2ccccn2c1=O`, the solubility kinetic is reported as greater than 31.3 µg/mL.
`COc1ccccc1C(C[N+](=O)[O-])c1c(N)n(C)c(=O)n(C)c1=O` (centres undefined) showed a solubility kinetic greater than 50.1 µg/mL.
Work on `O=C(Nc1cccc(Cl)c1N1CCOCC1)c1cccnc1` yielded a solubility kinetic greater than 47.7 µg/mL.
In the case of `O=c1cc(-c2ccc(Cl)cc2)oc(=O)[nH]1`, the solubility kinetic is reported as greater than 33.5 µg/mL.
In the case of `CC(C)(C)c1ccc(/C=C/C(=O)NC2CCS(=O)(=O)C2)cc1` (centres undefined), the solubility kinetic is reported as greater than 48.2 µg/mL.
For `Cc1ccc(NC(=O)C2Oc3ccccc3OC2C)cc1` (centres undefined), the solubility kinetic was 28 µg/mL (≈ 98.8 µM).
`COCCNC(=O)/C(C#N)=C/c1cc(Br)c(O)c(OC)c1` showed a solubility kinetic of 45 µg/mL (≈ 127 µM).
Molecule `O=C(Cc1cccs1)NCCc1ccc(F)cc1` has a solubility kinetic greater than 39.5 µg/mL.
With `CCOC(=O)c1cn(CC)c2cc(F)c(F)cc2c1=O` the solubility kinetic was greater than 42.2 µg/mL.
For `Cc1cc(C)c(S(=O)(=O)NCc2cccnc2)c(C)c1`, the solubility kinetic was greater than 43.6 µg/mL.
With `Cc1ccc(N(Cc2ccccc2O)C(=O)c2ccccc2F)cc1` the solubility kinetic was less than 0.7 µg/mL.
With `O=C(Nc1ccc(CN2CCOCC2)cc1)c1ccco1` the solubility kinetic was greater than 42.9 µg/mL.
In the case of `N#Cc1ccc(COC(=O)c2cnc(Cl)c(Cl)c2)cc1`, the solubility kinetic is reported as 1.4 µg/mL (≈ 4.56 µM).
`COc1cc2c(cc1OC)C(C)N(C(=O)c1cc3c(C)cc(C)cc3[nH]1)CC2` (centres undefined) gave a solubility kinetic of 4.7 µg/mL (≈ 12.4 µM).
`CC(=O)c1c(C)[nH]c(C(=O)OCc2cccc(C)c2)c1C` gave a solubility kinetic of 4.2 µg/mL (≈ 14.7 µM).
For `CNS(=O)(=O)c1cccc(C(=O)OCC(=O)Nc2ccc3ccccc3c2)c1`, the solubility kinetic was 2.8 µg/mL (≈ 7.03 µM).
Molecule `CCCn1c(=O)c2[nH]c(C3CCCC3)nc2n(CCC)c1=O` has a solubility kinetic of 3.1 µg/mL (≈ 10.2 µM).
For `Cc1ccc(C(=O)NCCNC(=O)c2ccc(C)nc2)cc1`, the solubility kinetic was greater than 44.6 µg/mL.
`N/C(=N\OC(=O)c1ccccc1F)c1cccc([N+](=O)[O-])c1` showed a solubility kinetic of 2.1 µg/mL (≈ 6.93 µM).
For `O=c1[nH]c2c(c(=O)[nH]1)CCC2`, the solubility kinetic was greater than 22.8 µg/mL.
Molecule `O=C(Nc1ccc([N+](=O)[O-])cn1)c1cccnc1` has a solubility kinetic of 7.2 µg/mL (≈ 29.5 µM).
`N#C/C(=C(/O)c1ccc(Cl)c([N+](=O)[O-])c1)c1nc2ccccc2[nH]1` showed a solubility kinetic of 0.6 µg/mL (≈ 1.76 µM).
For `COc1ccc(CNc2nc3ccccc3n2C)c(O)c1`, the solubility kinetic was 10.7 µg/mL (≈ 37.8 µM).
Molecule `CCOc1cccc(C2C(C(=O)c3ccc(C)o3)=C(O)C(=O)N2Cc2ccccc2)c1` (centres undefined) has a solubility kinetic of 62.5 µg/mL (≈ 150 µM).
In the case of `Cc1nc2ccccc2c(=O)n1-c1ccc(Cl)c(Cl)c1`, the solubility kinetic is reported as 44 µg/mL (≈ 144 µM).
For `COc1ccc(/C=N/NC(=O)c2cccnc2)cc1CN1CCOCC1`, the solubility kinetic was greater than 53.2 µg/mL.
In the case of `COc1ccc(CNC(=O)CCCSc2ccccc2)cc1`, the solubility kinetic is reported as 2.4 µg/mL (≈ 7.61 µM).
In the case of `O=C(Nc1cccc([N+](=O)[O-])c1)c1ccc2nsnc2c1`, the solubility kinetic is reported as 1.9 µg/mL (≈ 6.33 µM).
`O=C(CSc1nc2ccccc2c2c1CCCC2)N1CCOCC1` showed a solubility kinetic of 9.9 µg/mL (≈ 28.9 µM).
`OC[C@H]1O[C@@H](n2cnc3c(Nc4ccccc4)ncnc32)[C@H](O)[C@@H]1O` gave a solubility kinetic greater than 51.5 µg/mL.
For `COC(=O)c1cc(C)ccc1OCc1ccc([N+](=O)[O-])cc1`, the solubility kinetic was less than 0.6 µg/mL.
For `CSC1=N/C(=C/c2cccnc2)C(=O)N1Cc1ccccc1`, the solubility kinetic was 5.2 µg/mL (≈ 16.8 µM).
In the case of `O=C(O)COc1ccc(S(=O)(=O)N2CCCC2)cc1`, the solubility kinetic is reported as greater than 42.8 µg/mL.
Work on `O=C(Nc1nc2cc3c(cc2s1)OCCO3)c1ccco1` yielded a solubility kinetic of 4.8 µg/mL (≈ 15.9 µM).
`CCN1C(=O)c2ccc(C(=O)Nc3ccc4c(c3)OCO4)cc2C1=O` gave a solubility kinetic of 0.5 µg/mL (≈ 1.48 µM).
`CC(C)C(OC(=O)c1ccccc1)c1nccc2ccccc12` (centres undefined) gave a solubility kinetic of 6.9 µg/mL (≈ 22.6 µM).
Molecule `CC1CN(C(=S)NC(=O)c2ccccc2)CC(C)O1` (centres undefined) has a solubility kinetic greater than 41.8 µg/mL.
Molecule `C/C=C/C=C(/NC(=O)c1ccccc1)C(=O)Nc1ccccc1` has a solubility kinetic of 2.3 µg/mL (≈ 7.51 µM).
Work on `O=C1COCC(=O)N1CCc1c[nH]c2ccccc12` yielded a solubility kinetic greater than 38.7 µg/mL.
With `CC(NC(=O)COc1ccccc1Cl)c1ccccc1` (centres undefined) the solubility kinetic was greater than 43.5 µg/mL.
In the case of `COc1ccc(CC(=O)Nc2ccc3nc(SC)sc3c2)cc1OC`, the solubility kinetic is reported as 34.3 µg/mL (≈ 91.6 µM).
With `CC(=O)Nc1ccc(S(=O)(=O)Nc2ccc3c(c2)OCO3)cc1` the solubility kinetic was greater than 50.2 µg/mL.
`Cc1cccc(OCCCCn2c(CO)nc3ccccc32)c1` showed a solubility kinetic of 31.4 µg/mL (≈ 101 µM).
`COc1ccccc1NC(=O)c1ccc2nsnc2c1` gave a solubility kinetic of 39.6 µg/mL (≈ 139 µM).
With `C(#Cc1ccccc1)CN1CCCCC1.Cl` the solubility kinetic was 25.6 µg/mL.
`COc1ccc(CCNCc2ccc(C)s2)cc1OC.Cl` showed a solubility kinetic greater than 49.2 µg/mL.
For `COc1cc(/C=C/c2[nH]c(=O)[nH]c(=O)c2[N+](=O)[O-])cc(OC)c1O`, the solubility kinetic was greater than 50.3 µg/mL.
For `CCOC(=O)CN1C(=O)CC(c2ccc([N+](=O)[O-])cc2)C1=O` (centres undefined), the solubility kinetic was greater than 45.9 µg/mL.
Molecule `Clc1ccc(C2=CSC3=NCCN23)c(Cl)c1.[Br-]` has a solubility kinetic greater than 52.7 µg/mL.
`Cc1ccc(S(=O)(=O)Nc2ccccc2C(=O)N2CCCCC2)cc1` showed a solubility kinetic greater than 53.8 µg/mL.
Work on `O=C(Nc1cccc(NC(=O)c2ccco2)n1)c1ccco1` yielded a solubility kinetic of 6.1 µg/mL (≈ 20.5 µM).
For `CCC(C)NC(=O)c1cn(-c2cccc(OC)c2)c(=O)c2ccccc12` (centres undefined), the solubility kinetic was 46.9 µg/mL (≈ 134 µM).
With `Cc1ccc(C2=NOC3(CC(=O)N(c4ccc(C)cc4)C3=O)C2)cc1` (centres undefined) the solubility kinetic was 12.6 µg/mL (≈ 37.7 µM).
For `Cc1ccc(C(=O)Nc2nccc(C)n2)cc1`, the solubility kinetic was 21.9 µg/mL (≈ 96.4 µM).
With `CC(C)Oc1ccc(C(=O)Nc2cccc3cccnc23)cc1` the solubility kinetic was 1.1 µg/mL (≈ 3.59 µM).
For `O=C(O)CCCC(=O)Nc1cc([N+](=O)[O-])ccc1O`, the solubility kinetic was 35.8 µg/mL (≈ 133 µM).
For `COc1ccc(NC(=S)NC(=O)Cc2ccccc2)c(OC)c1`, the solubility kinetic was 1.7 µg/mL (≈ 5.15 µM).
`O=C(Cc1c(F)cccc1Cl)Nc1ncc([N+](=O)[O-])s1` gave a solubility kinetic of 16.7 µg/mL (≈ 52.9 µM).
Work on `N#CCSc1ccc(-c2nc3ccccc3[nH]2)cn1` yielded a solubility kinetic of 17 µg/mL (≈ 63.8 µM).
`O=C(Cn1c(=O)oc2ccccc21)Nc1ccccc1C(F)(F)F` gave a solubility kinetic of 10 µg/mL (≈ 29.7 µM).
Molecule `CC1C(Br)C(=O)NC(=O)N1Cc1ccccc1` (centres undefined) has a solubility kinetic of 41.4 µg/mL (≈ 139 µM).
In the case of `CCOC(=O)c1sc(SC)c2c1CCC/C2=N/OC`, the solubility kinetic is reported as 0.7 µg/mL (≈ 2.34 µM).
`CC(Cc1ccccc1)NC(=O)c1ccc(N)cc1` (centres undefined) gave a solubility kinetic greater than 38.1 µg/mL.
In the case of `COc1ccccc1C(=O)N1CCN(C(=O)Cc2ccccc2)CC1`, the solubility kinetic is reported as 43.2 µg/mL (≈ 128 µM).
For `Cc1cc(Sc2ccc([N+](=O)[O-])cn2)ccc1Br`, the solubility kinetic was less than 0.3 µg/mL.
Work on `Nn1c(SCC(=O)Nc2ccc(N3CCOCC3)cc2)nnc1C1CC1` yielded a solubility kinetic greater than 56.2 µg/mL.
With `COc1cccc(NC(=S)N2c3ccccc3CC2C)c1` (centres undefined) the solubility kinetic was 20.3 µg/mL (≈ 68 µM).
`C=CCNc1oc(-c2cccs2)nc1S(=O)(=O)c1ccccc1` showed a solubility kinetic of 16.8 µg/mL (≈ 48.5 µM).
In the case of `CCOC(=O)c1sc(NC(=O)C2CC(=O)N(c3ccc(OCC)cc3)C2)nc1C` (centres undefined), the solubility kinetic is reported as 9.9 µg/mL (≈ 23.7 µM).
For `O=c1[nH]c2ccc(S(=O)(=O)Nc3ccccc3O)cc2[nH]1`, the solubility kinetic was greater than 45.8 µg/mL.
Work on `CN(C)C/C=C/C(O)(c1ccccc1)c1ccccc1` yielded a solubility kinetic greater than 40.1 µg/mL.
`CCC(C)NC(=O)C1c2ccccc2C(=O)N1Cc1ccc(F)cc1` (centres undefined) showed a solubility kinetic greater than 51.1 µg/mL.
In the case of `Cc1noc(C)c1C(=O)N1CCC(C(=O)c2ccccc2)CC1`, the solubility kinetic is reported as 41.8 µg/mL (≈ 134 µM).
In the case of `O=C(Nc1cccc2ccccc12)OCc1cncs1`, the solubility kinetic is reported as greater than 42.6 µg/mL.
`CC1CN(C(=O)c2ccc([N+](=O)[O-])s2)CC(C)O1` (centres undefined) showed a solubility kinetic greater than 40.5 µg/mL.
Work on `Cc1ccc2nc(-c3ccncc3)cc(C(=O)N3CCOCC3)c2c1` yielded a solubility kinetic greater than 50 µg/mL.
`Cn1ccnc1CC(O)(c1ccccc1)c1ccccc1` gave a solubility kinetic of 20.4 µg/mL (≈ 73.3 µM).
In the case of `COc1cc(NC(=O)CCN2CCN(CCO)CC2)cc(OC)c1`, the solubility kinetic is reported as 44.5 µg/mL (≈ 132 µM).
For `Nc1ccccc1SC1CC(=O)N(c2ccc3c(c2)OCCO3)C1=O` (centres undefined), the solubility kinetic was 0.9 µg/mL (≈ 2.53 µM).
`CCOC(=O)Nc1ccc(S(=O)(=O)Nc2onc(C)c2C)cc1` gave a solubility kinetic of 47.2 µg/mL (≈ 139 µM).
`Oc1[nH]c2ccccc2c1C=Nc1ccccc1` showed a solubility kinetic of 0.7 µg/mL (≈ 2.96 µM).
